What follows are compounds tested against PKBα (Homo sapiens, UniProt P31749) (assay: PKB kinase assay (P33-labeled ATP, synthetic peptide substrate, filter plate)). Conditions: PKBα enzyme (full length or kinase domain with pleckstrin domain deleted).
Assay type: biochemical
Excerpt: The kinase assay for evaluating PKB activity comprises active PKB enzymes, a PKB specific substrate, and P^33-labeled ATP. Two forms of PKBα enzymes were used, the full length PKBα and a kinase domain of PKBα with pleckstrin domain (amino acids 1-117) deleted. Both PKB enzymes were obtained from Upstate cell signaling solutions (Cat.# 14-276 and 14-341). The PKB substrate used is a synthetic peptide (ARKRERTYSFGHHA (SEQ ID NO: 1)) as described in Obata et al., J. Biol. Chem. 275 (46), 36108-36115 (2000). The phosphorylated substrate was captured by a phosphocellulose membrane filter plate (MILLIPORE) and measured by a Wallac Microbeta liquid scintillation counter (Perkin Elmer). Table 1 provides the IC50 values obtained for each of the examples with respect to PKBα.

PKBα, sequence (P31749 118-480 limits assumed): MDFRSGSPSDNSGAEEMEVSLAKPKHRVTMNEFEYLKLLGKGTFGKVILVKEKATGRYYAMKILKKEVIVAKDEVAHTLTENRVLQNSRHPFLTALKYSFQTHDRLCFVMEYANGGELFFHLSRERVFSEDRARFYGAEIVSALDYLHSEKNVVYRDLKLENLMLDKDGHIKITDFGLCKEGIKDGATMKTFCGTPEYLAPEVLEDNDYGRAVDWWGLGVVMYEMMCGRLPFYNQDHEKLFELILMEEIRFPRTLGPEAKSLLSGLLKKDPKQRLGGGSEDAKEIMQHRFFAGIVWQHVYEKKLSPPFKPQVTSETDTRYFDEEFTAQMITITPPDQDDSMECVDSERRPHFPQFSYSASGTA

Structure (SMILES)	IC50 [nM]
N[C@H](CCn1cc(-c2ccc3cnccc3c2)cn1)Cc1ccc(F)c(F)c1 [Example 61, (2S)-1-(3,4-Difluorophenyl)-4-(4-(isoquinolin-6-yl)-1H-pyrazol-1-yl)butan-2-amine]	50 to 1000
Cc1n[nH]c2ccc(-c3cnc(NCc4ccccc4)o3)cc12 [Example 10, N-Benzyl-5-(3-methyl-1H-indazol-5-yl)oxazol-2-amine]	1000 to 10000
N[C@H](CNc1cc(-c2ccc3cnccc3c2)no1)Cc1ccc(Br)cc1 [Example 12, N-((S)-2-Amino-3-(4-bromophenyl)propyl)-3-(isoquinolin-6-yl)isoxazol-5-amine]	< 50
Cc1n[nH]c2ccc(-c3cnn(CC[C@@H](N)Cc4ccc(Cl)cc4)c3)cc12 [Example 53, (2S)-1-(4-Chlorophenyl)-4-(4-(3-methyl-1H-indazol-5-yl)-1H-pyrazol-1-yl)butan-2-amine]	< 50
N[C@H](CCc1cc(-c2ccc3cnccc3c2)no1)Cc1cccc(Cl)c1 [Example 26, (2R)-1-(3-chlorophenyl)-4-(3-(isoquinolin-6-yl)isoxazol-5-yl)butan-2-amine]	50 to 1000
Cc1n[nH]c2ccc(-c3nnc(NC[C@@H](N)Cc4cccc(C(F)(F)F)c4)o3)cc12 [Example 2, N-((S)-2-amino-3-(3-(trifluoromethyl)phenyl)propyl)-5-(3-methyl-1H-indazol-5-yl)-1,3,4-oxadiazol-2-amine]	1000 to 10000
N[C@H](CCn1cc(-c2ccc3cnccc3c2)cn1)Cc1ccccc1 [Example 64, (2S)-4-(4-(Isoquinolin-6-yl)-1H-pyrazol-1-yl)-1-phenylbutan-2-amine]	50 to 1000
N[C@H](CNc1cc(-c2ccc3cnccc3c2)no1)Cc1ccc(Cl)cc1 [Example 11, N-((S)-2-Amino-3-(4-chlorophenyl)propyl)-3-(isoquinolin-6-yl)isoxazol-5-amine]	< 50
N[C@H](CCc1cc(-c2ccc3cnccc3c2)no1)Cc1cccc(C(F)(F)F)c1 [Example 29, (2R)-4-(3-(Isoquinolin-6-yl)isoxazol-5-yl)-1-(3-(trifluoromethyl)phenyl)butan-2-amine]	50 to 1000
N[C@H](CNc1cc(-c2ccc3cnccc3c2)no1)Cc1ccccc1 [Example 15, N-((S)-2-Amino-3-phenylpropyl)-3-(isoquinolin-6-yl)isoxazol-5-amine]	50 to 1000
N[C@H](CNc1cc(-c2ccc3cnccc3c2)no1)Cc1c[nH]c2ccccc12 [Example 32, N-((S)-2-amino-3-(1H-indol-3-yl)propyl)-3-(isoquinolin-6-yl)isoxazol-5-amine]	50 to 1000
NCCNc1onc(-c2ccc3cnccc3c2)c1Cc1ccccc1 [Example 36, N-(2-Aminoethyl)-4-benzyl-3-(isoquinolin-6-yl)isoxazol-5-amine]	1000 to 10000
Cc1n[nH]c2ccc(-c3cn(CC[C@@H](N)Cc4ccccc4)nn3)cc12 [Example 40, (2S)-4-(4-(3-Methyl-1H-indazol-5-yl)-1H-1,2,3-triazol-1-yl)-1-phenylbutan-2-amine]	1000 to 10000
N[C@H](CNc1nc(-c2ccc3c(c2)CC(=O)N3)ns1)Cc1ccc(C(F)(F)F)cc1 [Example 44, 5-(5-((S)-2-Amino-3-(4-(trifluoromethyl)phenyl)propylamino)-1,2,4-thiadiazol-3-yl)indolin-2-one]	1000 to 10000
N[C@H](CNc1onc(-c2ccc3cnccc3c2)c1Cc1ccccc1)Cc1c[nH]c2ccccc12 [Example 33, N-((S)-2-Amino-3-(1H-indol-3-yl)propyl)-4-benzyl-3-(isoquinolin-6-yl)isoxazol-5-amine]	50 to 1000
N[C@H](CNc1cc(-c2ccc3cnccc3c2)no1)Cc1ccccc1Cl [Example 18, N-((S)-2-Amino-3-(2-chlorophenyl)propyl)-3-(isoquinolin-6-yl)isoxazol-5-amine]	50 to 1000
N[C@H](CCn1cc(-c2ccc3cnccc3c2)cn1)Cc1cccc(Cl)c1 [Example 59, (2S)-1-(3-Chlorophenyl)-4-(4-(isoquinolin-6-yl)-1H-pyrazol-1-yl)butan-2-amine]	50 to 1000
Cc1c(-c2ccc3cnccc3c2)noc1NC[C@@H](N)Cc1ccccc1 [Example 17, N-((S)-2-Amino-3-phenylpropyl)-3-(isoquinolin-6-yl)-4-methylisoxazol-5-amine]	1000 to 10000
N[C@H](CNc1cnn(-c2ccc3cnccc3c2)c1)Cc1ccc(C(F)(F)F)cc1 [Example 42, N-((S)-2-Amino-3-(4-(trifluoromethyl)phenyl)propyl)-1-(isoquinolin-6-yl)-1H-pyrazol-4-amine]	50 to 1000
COc1ccc(CNc2ncc(-c3ccncc3)o2)cc1 [Example 8, N-(4-Methoxybenzyl)-5-(pyridin-4-yl)oxazol-2-amine]	1000 to 10000

Structure (SMILES)	IC50 [nM]
N[C@H](CCc1nc(-c2ccc3cnccc3c2)no1)Cc1ccc(C(F)(F)F)cc1 [Example 3, (2R)-4-(3-(Isoquinolin-6-yl)-1,2,4-oxadiazol-5-yl)-1-(4-(trifluoromethyl)phenyl)butan-2-amine]	1000 to 10000
N[C@@H](Cc1ccc(C(F)(F)F)cc1)Cn1cc(-c2ccc3cnccc3c2)cn1 [Example 65, (2S)-1-(4-(Isoquinolin-6-yl)-1H-pyrazol-1-yl)-3-(4-(trifluoromethyl)phenyl)-propan-2-amine]	50 to 1000
N[C@H](CCc1cn(-c2ccc3[nH]ncc3c2)nn1)Cc1ccc(C(F)(F)F)nc1 [Example 67, (2R)-4-(1-(1H-Indazol-5-yl)-1H-1,2,3-triazol-4-yl)-1-(6-(trifluoromethyl)pyridin-3-yl)butan-2-amine bistrifluoroacetate]	50 to 1000
N[C@H](CCn1cc(-c2ccc3cnc(F)cc3c2)cn1)Cc1ccc(Cl)cc1 [Example 55, (2S)-1-(4-Chlorophenyl)-4-(4-(3-fluoroisoquinolin-6-yl)-1H-pyrazol-1-yl)butan-2-amine]	< 50
N[C@H](CCn1cc(-c2ccc3[nH]ncc3c2)cn1)Cc1ccc(Cl)cc1 [Example 52, (2S)-4-(4-(1H-Indazol-5-yl)-1H-pyrazol-1-yl)-1-(4-chlorophenyl)butan-2-amine]	< 50
N[C@H](CCn1cc(-c2ccc3[nH]c(=O)oc3c2)cn1)Cc1ccc(Cl)cc1 [Example 50, 6-(1-((S)-3-Amino-4-(4-chlorophenyl)butyl)-1H-pyrazol-4-yl)benzo[d]oxazol-2(3H)-one]	< 50
COc1ccc(CNc2ncc(-c3ccccc3)o2)cc1 [Example 7, N-(4-Methoxybenzyl)-5-phenyloxazol-2-amine]	1000 to 10000
N[C@H](CNc1cc(-c2ccc3cnccc3c2)on1)Cc1ccc(Cl)cc1 [Example 22, N-((S)-2-Amino-3-(4-chlorophenyl)propyl)-5-(isoquinolin-6-yl)isoxazol-3-amine]	50 to 1000
N[C@H](CNc1cc(-c2ccc3cnccc3c2)no1)Cc1cccc(Cl)c1 [Example 16, N-((S)-2-Amino-3-(3-chlorophenyl)propyl)-3-(isoquinolin-6-yl)isoxazol-5-amine]	< 50
Cc1n[nH]c2ccc(-c3cnc(NC[C@@H](N)Cc4ccc(C(F)(F)F)cc4)o3)cc12 [Example 9, N-((S)-2-Amino-3-(4-(trifluoromethyl)phenyl)propyl)-5-(3-methyl-1H-indazol-5-yl)oxazol-2-amine]	50 to 1000
N[C@@H](CCc1cc(-c2ccc3cnccc3c2)no1)Cc1ccc(C(F)(F)F)cc1 [Example 28, (2S)-4-(3-(Isoquinolin-6-yl)isoxazol-5-yl)-1-(4-(trifluoromethyl)phenyl)butan-2-amine]	50 to 1000
N[C@@H](Cc1ccc(C(F)(F)F)cc1)c1nc(-c2ccc3cnccc3c2)no1 [Example 5, (1S)-1-(3-(Isoquinolin-6-yl)-1,2,4-oxadiazol-5-yl)-2-(4-(trifluoromethyl)phenyl)ethanamine]	1000 to 10000
N[C@H](CCc1nnc(-c2ccc3cnccc3c2)o1)Cc1ccc(C(F)(F)F)cc1 [Example 66, (2R)-4-(5-(Isoquinolin-6-yl)-1,3,4-oxadiazol-2-yl)-1-(4-(trifluoromethyl)phenyl)butan-2-amine]	50 to 1000
N[C@H](CCn1cc(-c2ccc3[nH]ncc3c2)nn1)Cc1ccccc1 [Example 39, (2S)-4-(4-(1H-Indazol-5-yl)-1H-1,2,3-triazol-1-yl)-1-phenylbutan-2-amine]	50 to 1000
N[C@H](CCn1cc(-c2ccc3c(c2)CC(=O)N3)cn1)Cc1ccc(Cl)cc1 [Example 51, 5-(1-((S)-3-Amino-4-(4-chlorophenyl)butyl)-1H-pyrazol-4-yl)indolin-2-one]	< 50
N[C@H](CNc1cc(-c2ccc3cnccc3c2)no1)Cc1ccc2ccccc2c1 [Example 19, N-((S)-2-Amino-3-(naphthalen-2-yl)propyl)-3-(isoquinolin-6-yl)isoxazol-5-amine]	50 to 1000
N[C@H](CCc1cc(-c2ccc3cnccc3c2)no1)Cc1ccc(C(F)(F)F)cc1 [Example 24, (2R)-4-(3-(Isoquinolin-6-yl)isoxazol-5-yl)-1-(4-(trifluoromethyl)phenyl)butan-2-amine]	< 50
NCCc1c(-c2ccc3cnccc3c2)noc1NC[C@@H](N)Cc1c[nH]c2ccccc12 [Example 35, N-((S)-2-Amino-3-(1H-indol-3-yl)propyl)-4-(2-aminoethyl)-3-(isoquinolin-6-yl)isoxazol-5-amine]	1000 to 10000
N[C@H](CNc1onc(-c2ccc3cnccc3c2)c1Cc1ccccc1)Cc1ccccc1 [Example 31, N-((S)-2-amino-3-phenylpropyl)-4-benzyl-3-(isoquinolin-6-yl)isoxazol-5-amine]	1000 to 10000
N[C@H](CCn1cc(-c2ccc3[nH]ncc3c2)nn1)Cc1ccc(C(F)(F)F)cc1 [Example 37, (2S)-4-(4-(1H-Indazol-5-yl)-1H-1,2,3-triazol-1-yl)-1-(4-(trifluoromethyl)phenyl)butan-2-amine]	50 to 1000

Source: patent US7897619B2, “Heterocyclic modulators of PKB” (Amgen Inc., priority 2007, dated 2011)
